These molecules were tested against recombinant PI3K δ enzyme (Homo sapiens (Human), UniProt O00329) (assay: In vitro enzyme assay (Kinase-Glo luminescent kinase assay), PI3Kδ).
Type: biochemical
Procedure: The Kinase-Glo luminescent kinase assay kit (from Promega) was used to measure kinase activity. In this assay, amount of ATP remaining in solution following a kinase reaction is measured. The effect of compounds on PI3Kδ inhibition was carried out by adding 2.29 μg/ml of recombinant PI3K δ enzyme (Proteros, Germany) to reaction mixture containing assay buffer (50 mM HEPES, pH 7.4, 50 mM NaCl, 0.05% CHAPS) supplemented with 10 mM MgCl2, 5 mM DTT, 60 μM Phosphatidyl inositol bisphosphate (PIP2) and 10 μM ATP in the absence or presence of different concentrations of the compounds in a final volume of 15 μl/well, in a 384 well plate. The reaction mixture was incubated for 2 hours at room temperature. At the end of incubation period the equal volume of Kinase-Glo plus (Promega, V3772), was added per well and the luminescence was measured after incubating for 10 minutes at room temperature in dark. Results were calculated by measuring the luminescence units of test samples to blanks containing no enzyme.
The compounds of the present invention were tested for their selectivity for PI3Kδ over PI3Kα, PI3Kβ and PI3Kγ following the above assay using specific recombinant enzymes (Proteros, Germany) for each kinase. Assay condition of kinase assay (PI3Kα, PI3Kβ, PI3Kγ and PI3Kδ) was as follows. Enzyme: 2.29 μg/mL; ATP: 10 μM; PIP2 substrate: 60 μM and Reaction Time: 2 hours.

Chain of recombinant PI3K δ enzyme (O00329 whole entry, species assumed): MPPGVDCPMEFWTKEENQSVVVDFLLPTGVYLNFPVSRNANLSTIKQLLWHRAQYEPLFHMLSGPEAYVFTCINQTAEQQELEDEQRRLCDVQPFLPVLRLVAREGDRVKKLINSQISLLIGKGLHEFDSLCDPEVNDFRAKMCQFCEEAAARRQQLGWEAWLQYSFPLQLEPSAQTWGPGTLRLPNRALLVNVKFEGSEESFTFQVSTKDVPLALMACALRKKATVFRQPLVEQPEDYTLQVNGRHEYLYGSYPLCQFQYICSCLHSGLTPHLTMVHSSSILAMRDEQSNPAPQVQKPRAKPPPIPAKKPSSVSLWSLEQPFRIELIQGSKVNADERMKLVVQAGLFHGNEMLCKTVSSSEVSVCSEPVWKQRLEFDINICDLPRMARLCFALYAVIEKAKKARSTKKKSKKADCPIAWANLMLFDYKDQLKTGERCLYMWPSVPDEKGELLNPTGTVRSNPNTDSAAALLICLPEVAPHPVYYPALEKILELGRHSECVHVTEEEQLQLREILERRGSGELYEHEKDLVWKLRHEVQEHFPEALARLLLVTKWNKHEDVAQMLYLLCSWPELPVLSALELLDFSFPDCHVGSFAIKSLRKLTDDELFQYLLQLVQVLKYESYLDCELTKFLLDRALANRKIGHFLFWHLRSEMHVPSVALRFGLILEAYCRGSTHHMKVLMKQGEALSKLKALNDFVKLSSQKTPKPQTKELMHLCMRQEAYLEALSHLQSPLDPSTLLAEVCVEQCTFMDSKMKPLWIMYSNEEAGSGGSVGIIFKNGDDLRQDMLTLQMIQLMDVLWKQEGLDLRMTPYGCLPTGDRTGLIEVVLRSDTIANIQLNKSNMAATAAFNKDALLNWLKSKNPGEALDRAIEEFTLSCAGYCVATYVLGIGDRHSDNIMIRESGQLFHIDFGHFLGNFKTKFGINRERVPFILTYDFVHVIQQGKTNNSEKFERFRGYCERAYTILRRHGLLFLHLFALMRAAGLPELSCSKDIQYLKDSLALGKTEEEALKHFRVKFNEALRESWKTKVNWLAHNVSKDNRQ
Chain of recombinant PI3K δ enzyme (P27986 whole entry partner, species assumed): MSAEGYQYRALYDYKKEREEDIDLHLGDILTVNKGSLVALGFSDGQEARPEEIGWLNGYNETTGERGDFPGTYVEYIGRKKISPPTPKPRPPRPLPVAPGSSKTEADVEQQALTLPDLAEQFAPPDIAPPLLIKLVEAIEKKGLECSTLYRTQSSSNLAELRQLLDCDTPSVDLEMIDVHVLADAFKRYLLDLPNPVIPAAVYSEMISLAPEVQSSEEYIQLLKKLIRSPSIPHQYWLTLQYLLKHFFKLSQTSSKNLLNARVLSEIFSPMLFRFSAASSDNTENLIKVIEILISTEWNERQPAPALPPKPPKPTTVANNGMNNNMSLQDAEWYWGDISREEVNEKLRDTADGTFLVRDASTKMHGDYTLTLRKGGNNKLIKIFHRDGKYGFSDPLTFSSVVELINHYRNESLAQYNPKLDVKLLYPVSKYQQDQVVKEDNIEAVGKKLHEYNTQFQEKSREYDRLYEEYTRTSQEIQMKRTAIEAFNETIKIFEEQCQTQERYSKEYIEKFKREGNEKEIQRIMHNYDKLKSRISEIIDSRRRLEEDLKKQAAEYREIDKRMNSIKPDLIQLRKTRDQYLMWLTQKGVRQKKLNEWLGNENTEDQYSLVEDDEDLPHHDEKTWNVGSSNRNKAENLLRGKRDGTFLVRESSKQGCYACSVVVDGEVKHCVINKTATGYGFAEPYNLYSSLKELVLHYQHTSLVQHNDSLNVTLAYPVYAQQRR

| IC50 [nM] | SMILES |
| --- | --- |
| 26 | Cc1nn(C)c(C)c1-c1nc2[nH]c(C(=O)N3CCC(N4CCOCC4)CC3)nc2c(N2CCOCC2)c1F [Compound No. 93] |
| 5 | C[C@@H]1CN(C2CN(C(=O)c3nc4c(N5CCOCC5)cc(-c5cnn(C)c5)nc4[nH]3)C2)C[C@H](C)O1 [Compound No. 119, {3-[(2R,6S)-2,6-dimethylmorpholin-4-yl]azetidin-1-yl}[5-(1-methyl-1H-pyrazol-4-yl)-7-(morpholin-4-yl)-3H-imidazo[4,5-b]pyridin-2-yl]methanone] |
| 52 | CN(C(=O)c1nc2c(N3CCOCC3)cc(-c3cnn(C)c3)nc2[nH]1)C1CCN(C2CCOCC2)CC1 [Compound No. 121, N-Methyl-5-(1-methyl-1H-pyrazol-4-yl)-7-(morpholin-4-yl)-N-[1-(tetrahydro-2H-pyran-4-yl)piperidin-4-yl]-3H-imidazo[4,5-b]pyridine-2-carboxamide] |
| 19 | Cn1cc(-c2cc(N3CCOCC3)c3nc(C(=O)N4CC(N5CCNC(=O)C5)C4)[nH]c3n2)cn1 [Compound No. 128, 4-(1-{[5-(1-Methyl-1H-pyrazol-4-yl)-7-(morpholin-4-yl)-3H-imidazo[4,5-b]pyridin-2-yl]carbonyl}azetidin-3-yl)piperazin-2-one] |
| 10 | CN1CCN(C2CN(C(=O)c3nc4c(N5CCOCC5)cc(-c5cnn(C)c5)nc4[nH]3)C2)CC1=O [Compound No. 129, 1-Methyl-4-(1-{[5-(1-methyl-1H-pyrazol-4-yl)-7-(morpholin-4-yl)-3H-imidazo[4,5-b]pyridin-2-yl]carbonyl}azetidin-3-yl)piperazin-2-one] |
| 10 | CN1CCN(C2CN(C(=O)c3nc4c(N5CCOCC5)nc(-c5cnn(C)c5)nc4[nH]3)C2)CC1=O [Compound No. 130, 1-Methyl-4-(1-{[2-(1-methyl-1H-pyrazol-4-yl)-6-(morpholin-4-yl)-9H-purin-8-yl]carbonyl}azetidin-3-yl)piperazin-2-one] |
| 146 | CN(C(=O)c1nc2c(N3CCOCC3)cc(-c3cnn(C)c3)nc2[nH]1)C1CCN(C2COC2)CC1 [Compound No. 131, N-Methyl-5-(1-methyl-1H-pyrazol-4-yl)-7-(morpholin-4-yl)-N-[1-(oxetan-3-yl)piperidin-4-yl]-3H-imidazo[4,5-b]pyridine-2-carboxamide] |
| 61 | Cn1cc(-c2nc(N3CCOCC3)c3nc(C(=O)NCCc4cccnc4)[nH]c3n2)cn1 [compound 1, 2-(1-Methyl-1H-pyrazol-4-yl)-6-(morpholin-4-yl)-N-[2-(pyridin-3-yl)ethyl]-9H-purine-8-carboxamide] |
| 48 | Cn1cc(-c2nc(N3CCOCC3)c3nc(C(=O)NCCN4CCOCC4)[nH]c3n2)cn1 [compound 2, 2-(1-Methyl-1H-pyrazol-4-yl)-6-(morpholin-4-yl)-N-[2-(morpholin-4-yl)ethyl]-9H-purine-8-carboxamide] |
| 27 | Cn1cc(-c2nc(N3CCOCC3)c3nc(C(=O)N4CC(O)C4)[nH]c3n2)cn1 [compound 4, (3-Hydroxyazetidin-1-yl)[2-(1-methyl-1H-pyrazol-4-yl)-6-(morpholin-4-yl)-9H-purin-8-yl]methanone] |
| 36 | Cn1cc(-c2nc(N3CCOCC3)c3nc(C(=O)N4CCN5C(=O)COC[C@H]5C4)[nH]c3n2)cn1 [compound 6, (9aR)-8-{[2-(1-Methyl-1H-pyrazol-4-yl)-6-(morpholin-4-yl)-9H-purin-8-yl]carbonyl}hexahydropyrazino[2,1-c][1,4]oxazin-4(3H)-one] |
| 42 | Cn1cc(-c2nc(N3CCOCC3)c3nc(C(=O)N4CCC(N5CCOCC5=O)CC4)[nH]c3n2)cn1 [compound 7, 4-(1-{[2-(1-Methyl-1H-pyrazol-4-yl)-6-(morpholin-4-yl)-9H-purin-8-yl]carbonyl}piperidin-4-yl)morpholin-3-one] |
| 9 | Cc1nn(C)cc1-c1nc(N2CCOCC2)c2nc(C(=O)N3CCN(C4CCOCC4)CC3)[nH]c2n1 [compound 9, [2-(1,3-Dimethyl-1H-pyrazol-4-yl)-6-(morpholin-4-yl)-9H-purin-8-yl][4-(tetrahydro-2H-pyran-4-yl)piperazin-1-yl]methanone] |
| 26 | Cn1cc(-c2nc(N3CCOCC3)c3nc(C(=O)N4CCN(C5CCOCC5)CC4)[nH]c3n2)cn1 [compound 11, [2-(1-Methyl-1H-pyrazol-4-yl)-6-(morpholin-4-yl)-9H-purin-8-yl][4-(tetrahydro-2H-pyran-4-yl)piperazin-1-yl]methanone] |
| 34 | Cc1nn(C)cc1-c1nc(N2CCOCC2)c2nc(C(=O)N3CCC(C(C)(C)O)CC3)[nH]c2n1 [compound 12, [2-(1,3-Dimethyl-1H-pyrazol-4-yl)-6-(morpholin-4-yl)-9H-purin-8-yl][4-(2-hydroxypropan-2-yl)piperidin-1-yl]methanone] |
| 88 | Cn1cc(-c2nc(N3CCOCC3)c3nc(C(=O)N4CCC[C@H](N5CCOCC5)C4)[nH]c3n2)cn1 [compound 13, [2-(1-Methyl-1H-pyrazol-4-yl)-6-(morpholin-4-yl)-9H-purin-8-yl][(3S)-3-(morpholin-4-yl)piperidin-1-yl]methanone] |
| 123 | Cn1cc(-c2nc(N3CCOCC3)c3nc(C(=O)N4CCS(=O)(=O)CC4)[nH]c3n2)cn1 [compound 15, (1,1-Dioxidothiomorpholin-4-yl)[2-(1-methyl-1H-pyrazol-4-yl)-6-(morpholin-4-yl)-9H-purin-8-yl]methanone] |
| 88 | Cc1n[nH]c(C)c1-c1nc(N2CCOCC2)c2nc(C(=O)N3CCC(N4CCOCC4)CC3)[nH]c2n1 [compound 16, [2-(3,5-Dimethyl-1H-pyrazol-4-yl)-6-(morpholin-4-yl)-9H-purin-8-yl][4-(morpholin-4-yl)piperidin-1-yl]methanone] |
| 12 | Cn1cc(-c2nc(N3CCOCC3)c3nc(C(=O)N4CCC(N5CCOCC5)CC4)[nH]c3n2)c(C(F)(F)F)n1 [compound 17, {2-[1-Methyl-3-(trifluoromethyl)-1H-pyrazol-4-yl]-6-(morpholin-4-yl)-9H-purin-8-yl}[4-(morpholin-4-yl)piperidin-1-yl]methanone] |
| 230 | CC(C)n1cc(-c2nc(N3CCOCC3)c3nc(C(=O)N4CCC(N5CCOCC5)CC4)[nH]c3n2)cn1 [compound 18, [4-(Morpholin-4-yl)piperidin-1-yl]{6-(morpholin-4-yl)-2-[1-(propan-2-yl)-1H-pyrazol-4-yl]-9H-purin-8-yl}methanone] |
| 86 | Cn1cc(-c2nc(N3CCOCC3)c3nc(C(=O)N4CCNCC4)[nH]c3n2)cn1 [compound 20, [2-(1-Methyl-1H-pyrazol-4-yl)-6-(morpholin-4-yl)-9H-purin-8-yl](piperazin-1-yl)methanone] |
| 313 | CCn1c(C(=O)N2CCC(N(C)C)CC2)nc2c(N3CCOCC3)nc(-c3cnn(C)c3)nc21 [compound 21, [4-(Dimethylamino)piperidin-1-yl][9-ethyl-2-(1-methyl-1H-pyrazol-4-yl)-6-(morpholin-4-yl)-9H-purin-8-yl]methanone] |
| 368 | CCn1c(C(=O)N2CCC(N3CCOCC3)CC2)nc2c(N3CCOCC3)nc(-c3cnn(C)c3)nc21 [compound 22, [9-Ethyl-2-(1-methyl-1-pyrazol-4-yl)-6-(morpholin-4-yl)-9H-purin-8-yl][4-(morpholin-4-yl)piperidin-1-yl]methanone] |
| 198 | Cn1cc(-c2nc(N3CCOCC3)c3nc(C(=O)N4CCC(N5CCOCC5)CC4)n(C)c3n2)cn1 [compound 23, [9-Methyl-2-(1-methyl-1H-pyrazol-4-yl)-6-(morpholin-4-yl)-9H-purin-8-yl][4-(morpholin-4-yl)piperidin-1-yl]methanone] |
| 99 | Cn1cc(-c2nc(N3CCOCC3)c3nc(C(=O)N4CCN(C(=O)c5ncccn5)CC4)[nH]c3n2)cn1 [compound 25, [2-(1-Methyl-1H-pyrazol-4-yl)-6-(morpholin-4-yl)-9H-purin-8-yl][4-(pyrimidin-2-ylcarbonyl)piperazin-1-yl]methanone] |
| 101 | CC(=O)NC1CCN(C(=O)c2nc3c(N4CCOCC4)nc(-c4cnn(C)c4)nc3[nH]2)CC1 [compound 26, N-(1-{[2-(1-methyl-1H-pyrazol-4-yl)-6-(morpholin-4-yl)-9H-purin-8-yl]carbonyl}piperidin-4-yl)acetamide] |
| 128 | Cn1cc(-c2nc(N3CCOCC3)c3nc(C(=O)N4CCN(c5ncccn5)CC4)[nH]c3n2)cn1 [compound 27, [2-(1-Methyl-1H-pyrazol-4-yl)-6-(morpholin-4-yl)-9H-purin-8-yl][4-(pyrimidin-2-yl)piperazin-1-yl]methanone] |
| 69 | Cn1cc(-c2nc(N3CCOCC3)c3nc(C(=O)N4CCC(NS(C)(=O)=O)CC4)[nH]c3n2)cn1 [compound 28, N-(1-{[2-(1-methyl-1H-pyrazol-4-yl)-6-(morpholin-4-yl)-9H-purin-8-yl]carbonyl}piperidin-4-yl)methanesulfonamide] |
| 140 | Cn1cc(-c2nc(N3CCOCC3)c3nc(C(=O)N4CCN(C(=O)Cc5cnccn5)CC4)[nH]c3n2)cn1 [compound 29, 1-(4-{[2-(1-Methyl-1H-pyrazol-4-yl)-6-(morpholin-4-yl)-9H-purin-8-yl]carbonyl}piperazin-1-yl)-2-(pyrazin-2-yl)ethanone] |
| 627 | Cn1cc(-c2nc(N3CCOCC3)c3nc(C(=O)N4CCn5ccnc5C4)[nH]c3n2)cn1 [compound 30, 5,6-Dihydroimidazo[1,2-a]pyrazin-7(8H)-yl[2-(1-methyl-1H-pyrazol-4-yl)-6-(morpholin-4-yl)-9H-purin-8-yl]methanone] |
